One experiment concerns RS4.11. The experiment in a line: CellTiterBlue cell growth inhibition. The settings on record: Homo sapiens; RS4.11, 72 hours. The class given is cell-based. Here is the method:
(§1) This example illustrated the proliferating cell growth inhibition of selected compounds from this invention. To do this, the cells were seeded into fresh Iscove's growth medium at a density of 0.4e6 cells/ml and grown in log phase for 24 hr. Cells were then resuspended in their fresh respective growth media at 0.1e^6 cells/ml and plated into 384 well black, clear-bottom microplates at 36 ul/well. Test compounds and controls were initially dissolved in DMSO at the desired concentration, then serially diluted to the assay buffer. These solutions were added and cells were incubated for 72 hours at 37° C. CellTiterBlue (Promega cat# G7572) was added on the Beckman FX. Plates were returned to the 37° C. CO2 incubator for 4 hr and then fluorescence was determined on the Victor plate reader. Data were processed using Microsoft Excel, and GI50 values were generated using Prism (GraphPad Software, San Diego, Calif.).
On the technique in general: The colour change of resazurin is a common sign of viable cells or microbes.

The test system of a further experiment is MV4.11. The experiment is described as follows: CellTiterBlue cell growth inhibition. The class given is cell-based. Conditions: Homo sapiens; MV4.11, 72 hours. How it is done:
as §1

Another experiment has as its system KU812. The experiment in a line: CellTiterBlue cell growth inhibition. The class given is cell-based. The settings on record: Homo sapiens; KU812, 72 hours. Here is the method: as §1
A further experiment deals with K562. The experiment is described as follows: CellTiterBlue cell growth inhibition. The class given is cell-based. Conditions: Homo sapiens; K562, 72 hours. Here is the method: as §1
The target of a further experiment is Abl(h) (Homo sapiens, UniProt P00519). The experiment is described as follows: KinaseProfiler kinase assay. The class given is biochemical.
Experiment [1] relates to human MIAPaCa-2 pancreatic carcinoma xenograft. The experiment in a line: Pancreatic carcinoma xenograft in athymic nude mice. The class given is in vivo, mouse. Conditions: MIAPaCa-2 xenograft, nude mice, single agent. How it is done:
The objective of the third study was to evaluate antitumor activities of novel multiple-kinase inhibitor NTW-3475 in human MIAPaCa-2 pancreatic carcinoma xenograft in athymic nude-Faxn1 mice.
Four animals were randomly assigned to study groups. Each animal was weighed, and then injected subcutaneously in the left and right flank area with 0.1 ml of 5.0×10^7 MIAPaCa-2 cells per mL.
Each test or control animal was on a 5-day on, two-day off for two cycles treatment schedule with negative control vehicle, positive control Abraxane at 20 mg/kg or 25, 50 mg/kg of NTW-3475. Tumor growth was measured with a digital hand held caliper twice weekly (once tumor emerges) prior to the first dosing and then two to three times weekly until euthanized.
The objective of the third study was to evaluate antitumor activities of novel multiple-kinase inhibitor Compound 10, 11, 12, 53, 68, 82, 83, 88, and 90 in human MIAPaCa-2 pancreatic carcinoma xenograft in athymic nude-Faxn1 mice.
Each test or control animal was on a 5-day on, two-day off for three cycles treatment schedule with negative control vehicle or 40 mg/kg of Compound 10, 11, 12, 53, 68, 82, 83, 88 and 90. Tumor growth was measured with a digital hand held caliper twice weekly (once tumor emerges) prior to the first dosing and then two to three times weekly until euthanized.

Another experiment addresses T1, Flt3(h) (Homo sapiens, UniProt P36888).
T1 sequence (P36888 27-993): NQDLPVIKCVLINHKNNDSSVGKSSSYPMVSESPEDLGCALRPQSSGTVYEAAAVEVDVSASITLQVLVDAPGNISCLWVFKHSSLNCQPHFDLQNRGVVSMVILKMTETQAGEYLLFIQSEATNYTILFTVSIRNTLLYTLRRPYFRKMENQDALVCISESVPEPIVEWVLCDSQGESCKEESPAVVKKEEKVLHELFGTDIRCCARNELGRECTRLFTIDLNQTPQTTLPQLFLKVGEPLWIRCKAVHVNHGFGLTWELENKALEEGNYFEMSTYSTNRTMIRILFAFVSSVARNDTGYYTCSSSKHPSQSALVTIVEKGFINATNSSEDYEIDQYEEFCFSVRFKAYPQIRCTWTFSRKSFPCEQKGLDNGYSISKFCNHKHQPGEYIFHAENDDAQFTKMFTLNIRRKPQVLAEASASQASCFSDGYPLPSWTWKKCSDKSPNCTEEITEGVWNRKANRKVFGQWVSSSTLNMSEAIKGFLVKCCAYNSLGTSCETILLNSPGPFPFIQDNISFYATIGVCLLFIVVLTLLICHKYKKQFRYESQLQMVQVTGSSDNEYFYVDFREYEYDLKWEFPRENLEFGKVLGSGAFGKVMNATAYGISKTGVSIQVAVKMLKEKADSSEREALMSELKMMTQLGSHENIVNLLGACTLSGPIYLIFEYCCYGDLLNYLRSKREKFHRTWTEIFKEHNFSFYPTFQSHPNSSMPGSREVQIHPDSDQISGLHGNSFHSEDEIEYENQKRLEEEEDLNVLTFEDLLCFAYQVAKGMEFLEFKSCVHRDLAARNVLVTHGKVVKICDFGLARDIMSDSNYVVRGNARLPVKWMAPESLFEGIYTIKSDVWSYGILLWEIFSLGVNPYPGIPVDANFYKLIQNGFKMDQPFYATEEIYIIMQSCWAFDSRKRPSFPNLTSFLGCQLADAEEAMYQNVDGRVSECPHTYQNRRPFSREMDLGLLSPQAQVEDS
The experiment is described as follows: KinaseProfiler kinase assay. The class given is biochemical. An outline of the steps:
(§2)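 Each enzyme was assayed radiometrically: 40 min room-temperature reaction with [γ-33P]ATP and 10 mM Mg acetate, acid-stopped, filtered, scintillation-counted.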

The target in another experiment is cSRC(h) (Homo sapiens, UniProt P12931). The experiment is described as follows: KinaseProfiler kinase assay. The class given is biochemical. An outline of the steps:
as §2

A further experiment concerns the target T2, Aurora-A(h) (Homo sapiens, UniProt O14965).
T2 sequence (O14965 1-403): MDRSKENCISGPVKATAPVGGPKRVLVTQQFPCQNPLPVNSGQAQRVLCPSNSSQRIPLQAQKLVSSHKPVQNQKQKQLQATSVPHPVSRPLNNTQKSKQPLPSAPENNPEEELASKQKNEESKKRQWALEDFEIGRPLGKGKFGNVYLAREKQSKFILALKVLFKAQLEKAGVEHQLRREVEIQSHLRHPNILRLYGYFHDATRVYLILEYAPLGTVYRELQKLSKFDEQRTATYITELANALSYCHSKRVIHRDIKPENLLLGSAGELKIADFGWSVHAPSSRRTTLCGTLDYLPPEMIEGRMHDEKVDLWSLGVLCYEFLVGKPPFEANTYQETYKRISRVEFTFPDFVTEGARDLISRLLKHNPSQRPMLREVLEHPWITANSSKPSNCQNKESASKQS
The experiment in a line: KinaseProfiler kinase assay. The class given is biochemical. The settings on record: for inhibition at 1 µM: read-out: % Inhibition @1 μM Auroro-A. Summed up: as §2

The target in another experiment is Ret(h) (Homo sapiens, UniProt P07949). The experiment is described as follows: KinaseProfiler kinase assay. The class given is biochemical. Summed up:
as §2

The target of another experiment is KDR(h) (Homo sapiens, UniProt P35968). The experiment in a line: KinaseProfiler kinase assay. The class given is biochemical.
The subject of a further experiment is AN3.CA. The experiment is described as follows: CellTiterBlue cell growth inhibition. The class given is cell-based. The settings on record: Homo sapiens, 72 hours. How it is done: as §1
A further experiment has as its system TT. The experiment is described as follows: CellTiterBlue cell growth inhibition. The settings on record: Homo sapiens, 72 hours. The class given is cell-based. How it is done:
as §1

This note sets out measurements from patent US10245261B2, “Substituted indol-5-ol derivatives and their therapeutic applications” (NantBioScience, Inc., priority 2013, dated 2019).

Chain of KDR(h) (P35968 20-1356): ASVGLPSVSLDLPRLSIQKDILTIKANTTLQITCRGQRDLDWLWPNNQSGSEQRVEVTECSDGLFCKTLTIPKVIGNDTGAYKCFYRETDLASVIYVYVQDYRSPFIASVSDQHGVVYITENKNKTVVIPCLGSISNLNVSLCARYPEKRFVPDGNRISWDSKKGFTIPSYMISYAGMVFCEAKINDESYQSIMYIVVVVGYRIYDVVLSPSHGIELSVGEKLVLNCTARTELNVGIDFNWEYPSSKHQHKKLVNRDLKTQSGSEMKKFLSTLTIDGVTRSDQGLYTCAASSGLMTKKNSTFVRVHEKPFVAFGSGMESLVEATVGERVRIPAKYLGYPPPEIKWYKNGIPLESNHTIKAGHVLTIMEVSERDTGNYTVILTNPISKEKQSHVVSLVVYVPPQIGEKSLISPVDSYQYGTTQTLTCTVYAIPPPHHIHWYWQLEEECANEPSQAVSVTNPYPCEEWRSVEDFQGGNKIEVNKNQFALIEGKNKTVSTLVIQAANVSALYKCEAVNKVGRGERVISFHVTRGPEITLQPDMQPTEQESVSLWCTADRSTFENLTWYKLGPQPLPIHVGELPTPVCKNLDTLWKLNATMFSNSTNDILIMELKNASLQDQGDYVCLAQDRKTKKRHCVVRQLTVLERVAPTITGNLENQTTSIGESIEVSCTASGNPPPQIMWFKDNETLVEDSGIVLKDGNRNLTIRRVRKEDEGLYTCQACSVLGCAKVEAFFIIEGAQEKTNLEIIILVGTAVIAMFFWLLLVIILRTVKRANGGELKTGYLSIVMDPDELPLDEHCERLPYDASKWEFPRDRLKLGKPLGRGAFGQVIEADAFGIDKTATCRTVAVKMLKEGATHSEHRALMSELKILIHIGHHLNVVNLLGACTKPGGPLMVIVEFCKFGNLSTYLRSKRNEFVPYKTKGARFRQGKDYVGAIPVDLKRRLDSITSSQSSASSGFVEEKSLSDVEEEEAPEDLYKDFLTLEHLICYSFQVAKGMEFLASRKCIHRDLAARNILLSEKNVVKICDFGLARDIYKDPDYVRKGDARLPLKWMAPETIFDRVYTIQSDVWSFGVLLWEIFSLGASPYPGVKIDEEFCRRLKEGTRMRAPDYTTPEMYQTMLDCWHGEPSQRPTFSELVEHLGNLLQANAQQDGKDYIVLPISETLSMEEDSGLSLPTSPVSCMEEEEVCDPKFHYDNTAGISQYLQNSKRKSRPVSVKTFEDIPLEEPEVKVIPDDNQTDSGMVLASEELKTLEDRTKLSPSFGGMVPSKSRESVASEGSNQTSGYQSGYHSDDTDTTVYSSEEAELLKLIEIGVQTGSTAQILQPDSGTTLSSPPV
Chain of Ret(h) (P07949 29-1114): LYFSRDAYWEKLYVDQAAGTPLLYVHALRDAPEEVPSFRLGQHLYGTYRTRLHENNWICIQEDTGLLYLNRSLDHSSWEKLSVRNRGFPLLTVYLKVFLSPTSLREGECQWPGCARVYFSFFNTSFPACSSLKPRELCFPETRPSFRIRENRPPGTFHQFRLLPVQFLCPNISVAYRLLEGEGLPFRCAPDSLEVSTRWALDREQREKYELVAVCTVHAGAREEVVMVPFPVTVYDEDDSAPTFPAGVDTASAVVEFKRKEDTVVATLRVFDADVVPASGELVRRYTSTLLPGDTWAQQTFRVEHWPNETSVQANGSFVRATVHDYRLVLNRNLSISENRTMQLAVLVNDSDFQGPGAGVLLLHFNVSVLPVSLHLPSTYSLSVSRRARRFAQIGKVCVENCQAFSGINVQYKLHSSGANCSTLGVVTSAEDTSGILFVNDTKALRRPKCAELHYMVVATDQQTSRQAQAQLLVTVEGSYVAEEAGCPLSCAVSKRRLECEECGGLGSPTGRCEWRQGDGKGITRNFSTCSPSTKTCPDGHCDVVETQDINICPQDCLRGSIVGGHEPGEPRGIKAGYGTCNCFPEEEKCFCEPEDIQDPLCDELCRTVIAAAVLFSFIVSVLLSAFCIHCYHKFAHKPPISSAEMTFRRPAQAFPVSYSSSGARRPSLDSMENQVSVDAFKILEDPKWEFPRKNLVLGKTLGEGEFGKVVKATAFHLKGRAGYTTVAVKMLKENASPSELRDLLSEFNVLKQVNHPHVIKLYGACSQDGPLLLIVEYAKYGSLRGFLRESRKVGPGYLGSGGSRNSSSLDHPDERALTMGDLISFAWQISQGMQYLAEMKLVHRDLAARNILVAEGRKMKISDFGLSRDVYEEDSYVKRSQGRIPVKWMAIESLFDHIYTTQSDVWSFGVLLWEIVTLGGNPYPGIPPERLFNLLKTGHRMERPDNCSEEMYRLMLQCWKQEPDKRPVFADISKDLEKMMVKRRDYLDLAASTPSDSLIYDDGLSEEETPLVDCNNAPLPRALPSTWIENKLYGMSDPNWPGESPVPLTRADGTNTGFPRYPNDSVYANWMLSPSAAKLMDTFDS
Chain of cSRC(h) (P12931 whole entry): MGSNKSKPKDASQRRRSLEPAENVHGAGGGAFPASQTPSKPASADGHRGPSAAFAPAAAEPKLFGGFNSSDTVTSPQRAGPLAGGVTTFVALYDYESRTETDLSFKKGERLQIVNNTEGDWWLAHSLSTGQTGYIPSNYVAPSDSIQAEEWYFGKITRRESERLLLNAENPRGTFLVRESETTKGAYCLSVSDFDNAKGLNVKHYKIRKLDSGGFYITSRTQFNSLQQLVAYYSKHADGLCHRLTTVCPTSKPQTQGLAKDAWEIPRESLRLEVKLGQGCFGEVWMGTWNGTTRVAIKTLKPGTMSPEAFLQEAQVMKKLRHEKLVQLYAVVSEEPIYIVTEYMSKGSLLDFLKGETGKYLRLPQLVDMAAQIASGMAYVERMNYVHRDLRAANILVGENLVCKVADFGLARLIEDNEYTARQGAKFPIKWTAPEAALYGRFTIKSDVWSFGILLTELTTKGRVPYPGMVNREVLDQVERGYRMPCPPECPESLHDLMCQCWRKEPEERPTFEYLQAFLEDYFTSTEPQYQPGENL
Chain of Abl(h) (P00519 whole entry): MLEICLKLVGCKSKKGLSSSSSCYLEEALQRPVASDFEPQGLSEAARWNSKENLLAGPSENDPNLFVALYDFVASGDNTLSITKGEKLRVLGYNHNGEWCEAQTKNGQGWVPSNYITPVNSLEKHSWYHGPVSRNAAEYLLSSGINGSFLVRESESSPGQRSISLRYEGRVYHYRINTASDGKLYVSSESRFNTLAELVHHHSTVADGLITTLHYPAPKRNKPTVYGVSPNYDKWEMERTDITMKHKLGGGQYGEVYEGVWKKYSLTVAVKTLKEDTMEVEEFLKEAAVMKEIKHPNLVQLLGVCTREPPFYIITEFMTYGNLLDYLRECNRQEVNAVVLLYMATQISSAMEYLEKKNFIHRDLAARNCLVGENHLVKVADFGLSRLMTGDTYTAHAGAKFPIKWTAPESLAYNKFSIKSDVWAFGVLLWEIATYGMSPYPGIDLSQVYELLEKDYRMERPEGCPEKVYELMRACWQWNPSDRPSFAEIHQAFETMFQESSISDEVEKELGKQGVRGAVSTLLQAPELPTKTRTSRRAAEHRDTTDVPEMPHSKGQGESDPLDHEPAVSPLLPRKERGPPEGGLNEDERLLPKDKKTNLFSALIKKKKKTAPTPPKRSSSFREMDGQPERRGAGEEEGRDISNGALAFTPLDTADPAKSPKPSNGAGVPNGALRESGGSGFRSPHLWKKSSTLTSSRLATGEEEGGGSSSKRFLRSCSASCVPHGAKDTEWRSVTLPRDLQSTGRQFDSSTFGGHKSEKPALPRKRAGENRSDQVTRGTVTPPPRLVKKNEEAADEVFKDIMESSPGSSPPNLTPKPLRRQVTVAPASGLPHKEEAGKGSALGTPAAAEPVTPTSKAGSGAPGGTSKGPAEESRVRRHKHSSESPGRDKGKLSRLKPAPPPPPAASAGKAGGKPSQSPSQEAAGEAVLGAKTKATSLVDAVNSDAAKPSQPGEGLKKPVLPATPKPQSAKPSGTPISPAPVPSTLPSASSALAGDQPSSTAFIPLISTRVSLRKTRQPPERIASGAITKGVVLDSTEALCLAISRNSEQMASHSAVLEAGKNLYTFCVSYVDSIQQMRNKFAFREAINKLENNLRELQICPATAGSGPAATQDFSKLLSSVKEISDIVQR

By GI50 is commonly meant the concentration giving 50% growth inhibition. Low values mean more potent growth inhibition, high ones less potent growth inhibition. The term inhibition denotes the change of the read-out against control, counted positive when it falls. Broadly, the IC50 is the midpoint of a concentration-inhibition curve. For the molecule `Cc1cc2c(F)c(Oc3nc(Nc4cc(C5CC5)[nH]n4)cc(N4CCN(CCO)CC4)n3)ccc2[nH]1` [Compound 12], the GI50 worked out at 3.22 nM in the experiment with RS4.11, 0.41 nM with MV4.11, 0.27 nM in the experiment on KU812 and 0.28 nM in the experiment on K562. Further, the inhibition at 1 µM against Abl(h) was 112%; at Flt3(h), 100%; on cSRC(h) it was 100%; on Aurora-A(h), 100%; at Ret(h), 101%; against KDR(h), 96%. The IC50 was determined as 0.5 nM at Abl(h) (read-out: IC50 (nM) Abl (h)); 0.3 nM at Flt3(h) (read-out: IC50 (nM) Flt3 (h)); 2 nM on cSRC(h) (read-out: IC50 (nM) cSrc (h)); 2 nM at Aurora-A(h) (read-out: IC50 (nM) Auroro-A (h)); 1 nM at Ret(h) (read-out: IC50 (nM) Ret (h)). The anti-tumor effect entry in experiment [1] is on record as “strong anti-tumor effect”.

`Cc1cc2c(F)c(Oc3nc(Nc4cc(C5CC5)[nH]n4)cc(N4CCN(CCO)CC4)n3)cc(F)c2[nH]1` [Compound 83]: the GI50 amounted to 3.3 nM in the experiment on RS4.11, 0.4 nM in the experiment with MV4.11, 0.67 nM in the experiment on KU812 and 0.55 nM in the experiment with K562. Besides, the inhibition at 1 µM against Abl(h) amounted to 110%; at Flt3(h), 99%; on cSRC(h), 99%; at Aurora-A(h) it was 100%; at Ret(h) it was 101%; against KDR(h), 96%. In addition, the anti-tumor effect entry in [1] is recorded as “strong anti-tumor effect”.

For the molecule `CCC1CN(c2cc(Nc3cc(C4CC4)[nH]n3)nc(Oc3ccc4[nH]c(C)cc4c3F)n2)CCN1` (stereo not shown) [Compound 41], the inhibition at 1 µM is 108% on Abl(h); 99% against Flt3(h); 97% at cSRC(h); 87% on Aurora-A(h); 101% against Ret(h); 94% against KDR(h).

In the case of `C/C=C/c1cc(Nc2cc(N3CCC(N(CC)CC)C3)nc(Oc3cc(F)c4[nH]c(C)cc4c3F)n2)n[nH]1` (stereo not shown) [Compound 94], the inhibition at 1 µM against Abl(h) amounted to 111%; on Flt3(h) it was 99%; against cSRC(h), 100%; at Aurora-A(h), 100%; on Ret(h) it was 102%; on KDR(h), 96%.

Consider `C/C=C/c1cc(Nc2cc(N3CCC(OC)C3)nc(Oc3ccc4[nH]c(C)cc4c3F)n2)n[nH]1` (stereo not shown) [Compound 60], for which the inhibition at 1 µM at Abl(h) worked out at 111%; at Flt3(h), 99%; against cSRC(h), 101%; on Aurora-A(h), 97%; on Ret(h), 102%; on KDR(h) it was 95%.

For the molecule `C/C=C/c1cc(Nc2cc(N3CCNCC3)nc(Oc3cc(F)c4[nH]c(C)cc4c3F)n2)n[nH]1` [Compound 90], the GI50 is 5.07 nM in the experiment with RS4.11; 2 nM in the experiment with AN3.CA; 0.13 nM with MV4.11; 3.8 nM in the experiment on TT; 0.9 nM with KU812; 0.85 nM in the experiment on K562. Further, the inhibition at 1 µM was determined as 112% on Abl(h); 100% at Flt3(h); 101% against cSRC(h); 100% at Aurora-A(h); 99% against Ret(h); 95% on KDR(h). Moreover, the anti-tumor effect result in experiment [1] is reported as “strong anti-tumor effect”.
